PubChem BioAssay AID248 (DTP/NCI, 2004)
Inconclusive results and toxic doses are left out. No stated cut-off is given here; in the data, active means T/C of 150% or more; inactive means T/C below 125%. Square brackets hold non-standard residues; d marks the D form. Peptide text beside a SMILES is read from it. * marks the point of attachment. ξ: configuration not given here. ξF = NC(Cc1ccccc1)C(=O)O; Cbz = O=C(OCc1ccccc1)*; OBn = c1ccc(CO*)cc1

Tested on: L1210 leukemia ip in BDF1 mice, survival T/C
Assay: NCI In Vivo Anticancer Drug Screen. Data for tumor model L1210 Leukemia (intraperitoneal) in B6D2F1 (BDF1) mice
Conditions: endpoint: mean survival time, higher = longer survival
Procedure, shortened: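 Value reflects the ratio of survival in compound-treated mice to survival in vehicle-treated controls, with both groups carrying the same transplanted tumor.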

[1] = dose: 100.0 mg/kg/injection, schedule: Q01DX009 (ip), vehicle: Klucel (hydroxypropylcellulose) (HPC)
[2] = dose: 100.0 mg/kg/injection, schedule: Q04DX003 (ip), vehicle: Klucel (hydroxypropylcellulose) (HPC)
[3] = dose: 200.0 mg/kg/injection, schedule: Q01DX009 (ip), vehicle: Klucel (hydroxypropylcellulose) (HPC)
[4] = dose: 200.0 mg/kg/injection, schedule: Q04DX003 (ip), vehicle: Klucel (hydroxypropylcellulose) (HPC)
[5] = dose: 400.0 mg/kg/injection, schedule: Q04DX003 (ip), vehicle: Klucel (hydroxypropylcellulose) (HPC)
[6] = dose: 100.0 mg/kg/injection, schedule: Q01DX001 (ip), vehicle: carboxymethylcellulose (CMC)
[7] = dose: 200.0 mg/kg/injection, schedule: Q01DX001 (ip), vehicle: carboxymethylcellulose (CMC)
[8] = dose: 400.0 mg/kg/injection, schedule: Q01DX001 (ip), vehicle: carboxymethylcellulose (CMC)
[9] = dose: 100.0 mg/kg/injection, schedule: Q01DX001 (ip), vehicle: Klucel (hydroxypropylcellulose) (HPC)
[10] = dose: 200.0 mg/kg/injection, schedule: Q01DX001 (ip), vehicle: Klucel (hydroxypropylcellulose) (HPC)
[11] = dose: 400.0 mg/kg/injection, schedule: Q01DX001 (ip), vehicle: Klucel (hydroxypropylcellulose) (HPC)
[12] = dose: 400.0 mg/kg/injection, schedule: Q01DX009 (ip), vehicle: Klucel (hydroxypropylcellulose) (HPC)
[13] = dose: 100.0 mg/kg/injection, schedule: Q04DX003 (ip), vehicle: saline with Tween-80
[14] = dose: 200.0 mg/kg/injection, schedule: Q04DX003 (ip), vehicle: saline with Tween-80
[15] = dose: 400.0 mg/kg/injection, schedule: Q04DX003 (ip), vehicle: saline with Tween-80
[16] = dose: 100.0 mg/kg/injection, schedule: Q04DX002 (ip), vehicle: Klucel (hydroxypropylcellulose) (HPC)
[17] = dose: 200.0 mg/kg/injection, schedule: Q04DX002 (ip), vehicle: Klucel (hydroxypropylcellulose) (HPC)

Measured: T/C

CSc1ccc(OC(=O)Nc2cc(C)ccc2C)cc1
inactive: [1] 97 % of control | [2] 109 % of control | [3] 107 % of control | [4] 107 % of control | [5] 107 % of control

COc1nc(N)nc2c1ncn2C1OC(CO)CC1O (centres undefined)
inactive: dose: 50.0 mg/kg/injection, schedule: Q01DX001 (ip), vehicle: carboxymethylcellulose (CMC) 93 % of control | [6] 93 % of control | [7] 93 % of control | [8] 96 % of control

CN(C)c1nc2ccccc2n1C1OC(CO)C(O)C1O (centres undefined)
inactive: dose: 100.0 mg/kg/injection, schedule: Q01DX001 (ip), vehicle: acetone 106 % of control | dose: 200.0 mg/kg/injection, schedule: Q01DX001 (ip), vehicle: acetone 103 % of control | dose: 400.0 mg/kg/injection, schedule: Q01DX001 (ip), vehicle: acetone 97 % of control

CCC(Cl)COP(=O)(OCC(Cl)CC)C(CC)OP(=S)(OCC(Cl)CC)OCC(Cl)CC (centres undefined)
inactive: dose: 87.5 mg/kg/injection, schedule: Q01DX009 (ip), vehicle: Klucel (hydroxypropylcellulose) (HPC) 95 % of control | dose: 175.0 mg/kg/injection, schedule: Q01DX009 (ip), vehicle: Klucel (hydroxypropylcellulose) (HPC) 99 % of control

CCOC(=O)c1[nH]c(C)c(C)c1-c1ccccc1
inactive: [2] 109 % of control | [4] 94 % of control

CC(=O)Nc1ncnc2n[nH]c(C#N)c12
inactive: dose: 50.0 mg/kg/injection, schedule: Q01DX005 (ip), vehicle: saline with Tween-80 108 % of control | dose: 100.0 mg/kg/injection, schedule: Q01DX005 (ip), vehicle: saline with Tween-80 106 % of control

CC(C)(C)OC(=O)N/N=C/c1ccc2c(c1)OCO2
inactive: [2] 95 % of control | [4] 97 % of control | [5] 97 % of control

CC(=O)C(CCS(C)(=O)=O)c1ccccc1 (centres undefined)
inactive: [2] 103 % of control | [4] 97 % of control | [5] 105 % of control

CCCCCCCCCCCCCCCc1ccc([N+](=O)[O-])c(O)c1
inactive: dose: 100.0 mg/kg/injection, schedule: Q04DX003 (ip), vehicle: other 98 % of control | dose: 200.0 mg/kg/injection, schedule: Q04DX003 (ip), vehicle: other 101 % of control | dose: 400.0 mg/kg/injection, schedule: Q04DX003 (ip), vehicle: other 101 % of control

CCN1C(=S)N(C)C(=O)/C1=C\N(C(C)=O)c1ccccc1
inactive: dose: 50.0 mg/kg/injection, schedule: Q04DX003 (ip), vehicle: Klucel (hydroxypropylcellulose) (HPC) 103 % of control | [9] 104 % of control | [2] 112 % of control | [10] 104 % of control | [4] 100 % of control | [11] 102 % of control

O=[N+]([O-])c1ccc(OCCCOc2ccccc2)cc1
inactive: [1] 112 % of control | [2] 97 % of control | [3] 101 % of control | [4] 103 % of control | [12] 98 % of control | [5] 100 % of control

O=C(CCC(=O)Oc1ccc(S(=O)(=O)F)cc1)Oc1ccc(S(=O)(=O)F)cc1
inactive: dose: 100.0 mg/kg/injection, schedule: Q04DX003 (ip), vehicle: saline 92 % of control | dose: 200.0 mg/kg/injection, schedule: Q04DX003 (ip), vehicle: saline 118 % of control | dose: 400.0 mg/kg/injection, schedule: Q04DX003 (ip), vehicle: saline 103 % of control

CCOC(=O)C(Br)(C(=O)OCC)C(=O)c1cc(-c2ccc(Cl)c(Cl)c2)nc2c(Cl)cc(Cl)cc12
inactive: [9] 103 % of control | [1] 95 % of control | [10] 111 % of control | [3] 96 % of control | [11] 105 % of control | [12] 95 % of control

O=C1c2ccccc2C(=O)N1C1CCC(CO)C1 (centres undefined)
inactive: [6] 106 % of control | [7] 102 % of control | [8] 91 % of control

CCN(CC)C(=O)C(Cc1ccc(OC)c(OC)c1)C(Cc1ccc(OC)c(OC)c1)C(=O)O (centres undefined)
inactive: [13] 114 % of control | [14] 102 % of control | [15] 105 % of control

CCCCCCCCCCCCCCCCOc1c(Br)cc(Br)cc1Br
inactive: [9] 87 % of control | [10] 90 % of control | [11] 105 % of control

CN(C(=O)Nc1ccccc1F)C1CCCCC1
inactive: dose: 50.0 mg/kg/injection, schedule: Q01DX009 (ip), vehicle: Klucel (hydroxypropylcellulose) (HPC) 101 % of control | [1] 90 % of control | [3] 96 % of control

c1ccc(N=C(Nc2ccccc2)c2ccccc2)cc1
inactive: [16] 103 % of control | [13] 94 % of control | [17] 111 % of control | [14] 91 % of control | [15] 92 % of control

CCOC(=O)/C=C\n1c(=O)cc(C)c2cc3c(C)cc(=O)n(C)c3cc21
inactive: dose: 50.0 mg/kg/injection, schedule: Q01DX001 (ip), vehicle: Klucel (hydroxypropylcellulose) (HPC) 99 % of control | [9] 87 % of control | [10] 92 % of control

COc1ccc2ccccc2c1C(=O)CCC(=O)O
inactive: dose: 87.0 mg/kg/injection, schedule: Q04DX003 (ip), vehicle: Klucel (hydroxypropylcellulose) (HPC) 97 % of control | dose: 175.0 mg/kg/injection, schedule: Q04DX003 (ip), vehicle: Klucel (hydroxypropylcellulose) (HPC) 93 % of control | dose: 350.0 mg/kg/injection, schedule: Q04DX003 (ip), vehicle: Klucel (hydroxypropylcellulose) (HPC) 102 % of control

CC(=O)C(C(=O)c1ccccc1)c1cc(NS(=O)(=O)N(C)C)ccc1NS(=O)(=O)N(C)C (centres undefined)
inactive: dose: 25.0 mg/kg/injection, schedule: Q01DX001 (ip), vehicle: saline with Tween-80 98 % of control | dose: 50.0 mg/kg/injection, schedule: Q01DX001 (ip), vehicle: saline with Tween-80 93 % of control | dose: 100.0 mg/kg/injection, schedule: Q01DX001 (ip), vehicle: saline with Tween-80 100 % of control

O=C(Nc1ccccc1C(F)(F)F)OCCOc1ccc(Cl)cc1
inactive: [1] 98 % of control | [3] 91 % of control | [12] 87 % of control

CN(C)c1ccc(/C(=C(\c2ccccc2)c2ccc(N(C)C)cc2)c2ccccc2)cc1
inactive: [2] 90 % of control | [4] 93 % of control | [5] 89 % of control

O=C(O)CCc1cccc(O)c1
inactive: dose: 25.0 mg/kg/injection, schedule: Q04DX002 (ip), vehicle: saline 111 % of control | dose: 50.0 mg/kg/injection, schedule: Q04DX002 (ip), vehicle: saline 111 % of control | dose: 100.0 mg/kg/injection, schedule: Q04DX002 (ip), vehicle: saline 101 % of control

O=C(CNC(=O)OCc1ccccc1)NC(Cc1ccccc1)C(=O)OCc1ccccc1 (stereo not drawn) (Cbz-Gly-[ξF]-OBn)
inactive: [13] 101 % of control | [14] 103 % of control | [15] 95 % of control

NN(C(=O)c1ccc([N+](=O)[O-])cc1)C1CCCCC1
inactive: dose: 100.0 mg/kg/injection, schedule: Q04DX003 (ip), vehicle: acetone 96 % of control | dose: 200.0 mg/kg/injection, schedule: Q04DX003 (ip), vehicle: acetone 106 % of control | dose: 400.0 mg/kg/injection, schedule: Q04DX003 (ip), vehicle: acetone 93 % of control

C=CCc1ccc2c(c1)OC(CO)CO2 (centres undefined) (tested in a mixture with another compound)
inactive: dose: 100.0 mg/kg/injection, schedule: Q01DX001 (ip), vehicle: saline 90 % of control | dose: 200.0 mg/kg/injection, schedule: Q01DX001 (ip), vehicle: saline 93 % of control | dose: 400.0 mg/kg/injection, schedule: Q01DX001 (ip), vehicle: saline 93 % of control

CC1(C)SC2C(NC(=O)COc3ccccc3)C(=O)N2C1C(=O)O (centres undefined) (tested in a mixture with another compound)
inactive: [13] 101 % of control | [14] 103 % of control | [15] 97 % of control

Cc1cc(OC(=O)Nc2cccc([N+](=O)[O-])c2)cc(C)c1Cl
inactive: [1] 100 % of control | [3] 90 % of control | [12] 93 % of control

N=c1ncn(C2OC(CO[P+](N)(O)O)C(O)C2O)c2nc[nH]c12 (centres undefined)
inactive: dose: 12.5 mg/kg/injection, schedule: Q01DX005 (ip), vehicle: water 110 % of control | dose: 25.0 mg/kg/injection, schedule: Q01DX005 (ip), vehicle: water 106 % of control

CCCSCC
inactive: [13] 93 % of control | [14] 91 % of control | [15] 101 % of control

CC(=Nc1cc(C)c(C)cc1C)c1c(O)cc(C)oc1=O
inactive: [1] 93 % of control | [16] 98 % of control | [3] 98 % of control | [17] 98 % of control | [12] 87 % of control | dose: 400.0 mg/kg/injection, schedule: Q04DX002 (ip), vehicle: Klucel (hydroxypropylcellulose) (HPC) 98 % of control
